Reference: publication PMC4041448 (2014)

Tests used:
[1] = system: no loop RNA (RNA, hairpin) GGGAGAGGGUUUAAUCAGUACGAAAGUACUGAUUGGAUCCGCAAGG; assay: competition dialysis; conditions: 110 mM KCl, 2 mM MgCl2, 2 mM CaCl2, 8 mM Na phosphate; 1 mM EDTA, pH 7.0, 20–22°C; 1 μM ligand, 1.56 μM RNA; bound ligand concentration
[2] = system: A-G RNA hairpin (5'CNG/3'GNC panel) (RNA, mismatch bulge abasic) GGGAGAGGGUUUAAUCAGUACGAAAGUACGGAUUGGAUCCGCAAGG; assay: competition dialysis; conditions: 110 mM KCl, 2 mM MgCl2, 2 mM CaCl2, 8 mM Na phosphate; 1 mM EDTA, pH 7.0, 20–22°C; 1 μM ligand, 1.56 μM RNA; bound ligand concentration
[3] = system: Cy3-(CUG)10 RNA (RNA, repeat) CUGCUGCUGCUGCUGCUGCUGCUGCUGCUG; assay: fluorescence titration (Cy3 emission); conditions: HEPES-buffered saline; 0.5% DMSO, 0.005% Tween-20; one-site fit
[4] = system: RNA hairpin with six 5'CUG/3'GUC internal loops (RNA, repeat) GGGAGAGGGUUUAAUCUGCUGCUGCUGCUGCUGUACGAAAGUACUGCUGCUGCUGCUGCUGAUUGGAUCCGCAAGG; assay: competition dialysis; conditions: 110 mM KCl, 2 mM MgCl2, 2 mM CaCl2, 8 mM Na phosphate; 1 mM EDTA, pH 7.0, 20–22°C; 1 μM ligand, 1.33 μM RNA; compared with MBNL1 protein
[5] = system: U·U RNA hairpin (5'CNG/3'GNC panel) (RNA, mismatch bulge abasic) GGGAGAGGGUUUAAUCUGUACGAAAGUACUGAUUGGAUCCGCAAGG; assay: competition dialysis; conditions: 110 mM KCl, 2 mM MgCl2, 2 mM CaCl2, 8 mM Na phosphate; 1 mM EDTA, pH 7.0, 20–22°C; 1 μM ligand, 1.56 μM RNA; bound ligand concentration

Bound Dilomofungin (Cb) [1] [nM]	Bound Dilomofungin (Cb) [2] [nM]	KD [3] [nM]	binding [4]	binding [5]	Structure (SMILES)
228 ± 77	77.8 ± 33	606 ± 300	yes	yes	COC(=O)c1ccc(O)c2nc3c(C=O)c(O)c(-c4c(O)c(C=O)c5nc6c(O)ccc(C(=O)OC)c6nc5c4O)c(O)c3nc12
–	–	998 ± 180	yes	yes	COC(=O)c1ccc(O)c2nc3c(C=O)c(O)cc(O)c3nc12
